This note sets out measurements from US7183257B2, “Use of RPL41 to treat infections and inhibit cancer” (priority 2004, dated 2007).

Peptide text beside a SMILES is read from it. * marks the point of attachment. Cbz = O=C(OCc1ccccc1)*; CH2F = FC*

Data set [1] has as its system five tumor cell lines (HTB72, CRL1435, CRL5800, HCT116, MCF7). In words: Caspase inhibitor z-VAD.fmk with RPL41 (morphology and Δψm assays). Type of data set: cell-based. To be noted: Z-VAD.fmk 50 μM with RPL41 6.7 μM, 8 hours. The method, then:
FIG. 10—RPL41 induced cell death is caspase independent. […].
. The cell death induced by RPL41, therefore, is likely to be caspase-independent. A broad-spectrum caspase inhibitor z-VAD.fmk was also incubated with five tumor cell lines, in the presence of RPL41, to determine whether the inhibition of caspases will attenuate RPL41 induced cell death. […]

Data set [2] has as its system 24 tumor cell lines of various tissue types (ATCC). It is filed as cell-based.
Data set [3] in a line: Isoelectric point of peptide. Type of data set: physicochemical.

In the case of `COC(=O)C[C@H](NC(=O)[C@H](C)NC(=O)[C@@H](NC(=O)OCc1ccccc1)C(C)C)C(=O)CF` [z-VAD.fmk] (Cbz-Val-Ala-Asp(OMe)-CH2F), the “suppression of RPL41 induced cell death” value in data set [1] is “failed to suppress the RPL41 induced cell death”. Turning to “MLISSGLKDGIRSGI [control peptide unrelated to RPL41]”, the “effect on tumor cell growth” value in data set [2] (concentration ten times higher than that of RPL41) is listed as “no effect on tumor cell growth”. The pI in data set [3] is 8.5. As to “NH2-KARMRMKRKLRKRMRKRQRSRKWKR-OH (H-KARMRMKRKLRKRMRKRQRSRKWKR-OH)”, the “inhibition effect on tumor cell growth after pre-treatment of peptide with proteases” value in data set [2] (peptides pre-treated with proteases (DIGEST-ALL, Zymed)) is given as “completely abolished”.
